Laboratory results as given in US5179100A, “4,5-dihydropyrazolo[3,4-a]acridines” (Hoechst-Roussel Pharmaceuticals inc., priority 1992, dated 1993).
Structures can show the parent of a compound that is named as a salt.

system: 2-phenyl-1,4-benzoquinone-induced writhing in mice; experiment: 2-phenyl-1,4-benzoquinone-induced writhing test in mice (PQW Activity), analgesia; type: in vivo; details: 33 mg/kg, s.c. (reference compound)
Protocol: Exptl. […] The tests were conducted at the subcutaneous dose of 20 mg/kg.

For `CC(=O)Oc1ccccc1C(=O)O` [Aspirin, reference compound], the “PQW Activity, % Inhibition” value was 50%.

same assay, conditions: subcutaneous, 20 mg/kg

First: CN(C)CCn1cc2c(n1)-c1c(nc3ccccc3c1N)CC2 [11-Amino-4,5-dihydro-2-(2-dimethylaminoethyl)-2H-pyrazolo [3,4-a]acridine]
Second: CCn1cc2c(n1)-c1c(nc3ccccc3c1N)CC2 [11-Amino-4,5-dihydro-2-ethyl-2H-pyrazolo[3,4-a]acridine]
The “PQW Activity, % Inhibition” value of the first is lower: 59% for the first, 67% for the second.

Compared with `Nc1c2c(nc3ccccc13)CCc1cnn(-c3ccccc3)c1-2` [11-Amino-4,5-dihydro-1-phenyl-1H-pyrazolo[3,4-a]acridine], `Cn1cc2c(n1)-c1c(nc3ccccc3c1N)CC2` [11-Amino-4,5-dihydro-2-methyl-2H-pyrazolo[3,4-a]acridine] is higher in “PQW Activity, % Inhibition” value: 48% for the first, 54% for the second.

Going from `Nc1c2c(nc3ccccc13)CCc1cn(CC(=O)O)nc1-2` [11-Amino-4,5-dihydro-2H-pyrazolo[3,4-a]acridine-2-acetic acid hydrochloride hemihydrate] to `N#CCn1cc2c(n1)-c1c(nc3ccccc3c1N)CC2` [11-Amino-4,5-dihydro-2H-pyrazolo[3,4-a]acridine-2-acetonitrile], the “PQW Activity, % Inhibition” value falls from 58% to 47%.
